The test system of assay [1] is mouse teratoma cells P19. Kind of assay: Formation of microspheres of adherently cultured stem cells. It counts as cell-based. To be noted: 5 μg/mL, 3% fetal calf serum DMEM, 22 d, compared with control, FIG. 5. As for the experimental part:
In a super clean bench, mouse teratoma cells P19 were inoculated in a 6-well plate at a density of 1×10^4 cells/well, and DMEM culture medium containing 10% fetal calf serum was added to result in a final volume of 2 mL. The cell culture plate was gently shaken, so that the cells were uniformly distributed in the cell culture plate, and then placed in a cell incubator to be cultured. After 24 h, the old culture medium were discarded, and 3% fetal calf serum DMEM culture medium containing ethyl p-methoxycinnamate was added, so that the final concentration of ethyl p-methoxycinnamate was 5 μg/mL. The original culture medium was discarded every 24 h, and fresh DMEM culture medium containing 3% fetal calf serum was added, and the final concentration of ethyl p-methoxycinnamate therein was made to be 5 μg/mL likewise. After continuous culture of 22 d, the cells were photographed.

Assay [2] has as its system Oct4 promoter. Kind of assay: Oct4 promoter luciferase reporter assay (pGL3-Oct4P-Basic) in P19 cells. Type of assay: cell-based, mouse. To be noted: 5 μg/mL, 12-24 h, DMSO control, FIG. 1. The source says:
According to a method described in literature (Yang H M, Do H J, Oh J H, et al. Characterization of putative cis-regulatory elements that control the transcriptional activity of the human Oct4 promoter[J]. Journal of cellular biochemistry, 2005, 96(4):821-830), the promoter of Oct4 gene was picked and cloned into pGL3-Basic, so as to construct pGL3-Oct4P-Basic reporter plasmid. One day before transfection, mouse teratoma cells P19 were inoculated into a 6-well cell culture plate at a density of 2×10^5 cells/well to make the cells grown to about 80% before transfection. […]
Luciferase Reporter Assay System and FluoStar Optima were used to assay the luciferase activity of the transfected cell lysis solution. To 45 μL of the cell lysis solution was added 5 μL of Assay Cocktail reagent, after they were mixed well, 100 μL of Luciferin reaction solution was added, and fluorescence counting in 2 s was measured using FluoStar Optima instrument, which reflected the activity level of the studied plasmid reporter genes expressing firefly luciferase. […] An absorption value at 450 nm was assayed using a microplate reader, which reflected the activity level of internal reference plasmid pCMV-β-gal expressing β-galactosidase. […] The relative luciferase activity of different samples was calculated through the following equation: […]
(In general: Reporter assays use an easily measured gene product as a stand-in for the process of interest.)

Assay [3] has as its system Oct4 protein. Kind of assay: Oct4 protein expression by Western Blot in P19 cells. It counts as cell-based, mouse. Conditions: 5 μg/mL, 24 h, DMSO control, FIG. 3. On the procedure:
The effect of ethyl p-methoxycinnamate on Oct4 protein expression was assayed using a Western Blot method. Mouse teratoma cells P19 were inoculated in a 6-well plate. After 24 h, ethyl p-methoxycinnamate with a final concentration of 5 μg/mL was added to continue to act for another 24 h, and the control group was treated with DMSO. After the cells were washed with PBS three times, the cells were scraped with a scraper, transferred to an EP tube, and centrifuged at 4000 rpm for 5 min. The supernatant was discarded. 90 μL of lysis solution (50 mM Tris-HCl pH 7.5, 150 mM NaCl, 1 mM NaF, 0.5% NP-40, 2 μg/mL Aprotinin, and 1 mM PMSF) was added to each tube of precipitate, and the EP tube was treated on ice for 30 min and vortexed once every 5 min, so that the cells were completely lysed. After centrifugation at 12000 rpm for 10 min, the supernatant was transferred to a new EP tube, 1/3 volume of 4× protein loading buffer was added, mixed well, and boiled for 10 min, and after instantaneous centrifugation, the mixture was subjected to electrophoresis or placed at −80° C. to be frozen for standby use.
A transfer membrane buffer was prepared and precooled at 4° C. A PVDF membrane was soaked in methanol for 40 s, then taken out and soaked in the transfer membrane buffer for standby use. […]

Take `CCOC(=O)C=Cc1ccc(OC)cc1` [ethyl p-methoxycinnamate]: the “formation of microspheres of adherently cultured stem cells” value in assay [1] is reported as “the P19 cells can form typical microspheres”. Moreover, in assay [2], the “effect on the activity of Oct4 promoter (relative luciferase activity)” value is “reached a statistically significant difference (*p<0.05)”. The “effect on the expression of Oct4 protein” value in assay [3] is reported as “can promote the expression of Oct4 protein”.
